Results from the supplement of paper PMC10883282.

Legend:
Experiment in all cases: relative viability vs DMSO control (72 h) (fraction); higher = more viable cells
[1] = system: SW872
How it was run: (§1)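 ATPLite readings, expressed as percent growth and averaged over up to triplicate wells, provided relative viability. Before reading, sarcoma cell lines seeded in 384-well plates to reach 80–90% confluence received 2.5 µl of serially diluted compound after 24 h, from source plates of 10 mM to 0.0002 mM. Plates were held 72 h at 37 °C, 5% CO2, with 0.1% DMSO as vehicle and a 5 µM positive control. The data were rescaled to 1 for full and 0 for none.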

[2] = system: SW684
How it was run: as §1

[3] = system: HT1080
How it was run: as §1

[4] = system: A204
How it was run: as §1

[5] = system: SK-LMS-1
How it was run: as §1

[6] = system: RD-ES
How it was run: as §1

[7] = system: SK-ES-1
How it was run: as §1

[8] = system: SW982
How it was run: as §1

[9] = system: VA-ES-BJ
How it was run: as §1

[10] = system: G401
How it was run: as §1

[11] = system: HS729
How it was run: as §1

[12] = system: KHOS-NP
How it was run: as §1

CC1(COc2ccc3c(c2)ncn3-c2ccc3cccc(N4CCC(N)CC4)c3n2)COC1 [Crenolanib]
Conditions	relative viability
[1], 0.00017 µM	1.03
[1], 0.00051 µM	1.01
[1], 0.00152 µM	1.03
[1], 0.00457 µM	1.06
[1], 0.01372 µM	1.05
[1], 0.04115 µM	1.02
[1], 0.1235 µM	1.01
[1], 0.3704 µM	0.988
[1], 1.111 µM	0.95
[1], 3.333 µM	0.786
[1], 10 µM	0.0216
[2], 0.00017 µM	1.02
[2], 0.00051 µM	1.05
[2], 0.00152 µM	1.08
[2], 0.00457 µM	1.04
[2], 0.01372 µM	1.04
[2], 0.04115 µM	1.05
[2], 0.1235 µM	1.08
[2], 0.3704 µM	1.1
[2], 1.111 µM	1.15
[2], 3.333 µM	0.978
[2], 10 µM	0.423
[3], 0.00017 µM	1.01
[3], 0.00051 µM	1.03
[3], 0.00152 µM	1.04
[3], 0.00457 µM	1.03
[3], 0.01372 µM	1.02
[3], 0.04115 µM	1.02
[3], 0.1235 µM	1.02
[3], 0.3704 µM	1.05
[3], 1.111 µM	1.04
[3], 3.333 µM	0.811
[3], 10 µM	0.0545
[4], 0.00017 µM	1.085
[4], 0.00051 µM	1.07
[4], 0.00152 µM	1.08
[4], 0.00457 µM	1.05
[4], 0.01372 µM	1.01
[4], 0.04115 µM	0.819
[4], 0.1235 µM	0.594
[4], 0.3704 µM	0.457
[4], 1.111 µM	0.403
[4], 3.333 µM	0.326
[4], 10 µM	0.016
[5], 0.00017 µM	0.98
[5], 0.00051 µM	1.05
[5], 0.00152 µM	1.036
[5], 0.00457 µM	1.04
[5], 0.01372 µM	1.03
[5], 0.04115 µM	1.03
[5], 0.1235 µM	1.07
[5], 0.3704 µM	1.02
[5], 1.111 µM	0.967
[5], 3.333 µM	0.8
[5], 10 µM	0.0424
[6], 0.00017 µM	0.949
[6], 0.00051 µM	0.958
[6], 0.00152 µM	0.957
[6], 0.00457 µM	0.975
[6], 0.01372 µM	0.958
[6], 0.04115 µM	0.969
[6], 0.1235 µM	0.97
[6], 0.3704 µM	0.994
[6], 1.111 µM	0.915
[6], 3.333 µM	0.359
[6], 10 µM	0.255
[7], 0.00017 µM	0.997
[7], 0.00051 µM	0.993
[7], 0.00152 µM	1.01
[7], 0.00457 µM	1.05
[7], 0.01372 µM	1.02
[7], 0.04115 µM	1.02
[7], 0.1235 µM	1.014
[7], 0.3704 µM	0.949
[7], 1.111 µM	0.675
[7], 3.333 µM	0.188
[7], 10 µM	0.0214
[8], 0.00017 µM	0.937
[8], 0.00051 µM	0.9575
[8], 0.00152 µM	0.947
[8], 0.00457 µM	0.974
[8], 0.01372 µM	0.965
[8], 0.04115 µM	0.971
[8], 0.1235 µM	0.969
[8], 0.3704 µM	0.952
[8], 1.111 µM	0.679
[8], 3.333 µM	0.352
[8], 10 µM	0.0115
[9], 0.00017 µM	1.03
[9], 0.00051 µM	1.02
[9], 0.00152 µM	1.04
[9], 0.00457 µM	1.04
[9], 0.01372 µM	1.05
[9], 0.04115 µM	1.08
[9], 0.1235 µM	1.09
[9], 0.3704 µM	1.11
[9], 1.111 µM	0.961
[9], 3.333 µM	0.466
[9], 10 µM	0.108
[10], 0.00017 µM	0.968
[10], 0.00051 µM	0.935
[10], 0.00152 µM	0.951
[10], 0.00457 µM	0.942
[10], 0.01372 µM	0.955
[10], 0.04115 µM	0.981
[10], 0.1235 µM	0.972
[10], 0.3704 µM	0.99
[10], 1.111 µM	0.95
[10], 3.333 µM	0.934
[10], 10 µM	0.0201
[11], 0.00017 µM	0.96
[11], 0.00051 µM	0.973
[11], 0.00152 µM	1.03
[11], 0.00457 µM	0.992
[11], 0.01372 µM	1.01
[11], 0.04115 µM	0.98
[11], 0.1235 µM	0.97
[11], 0.3704 µM	1.01
[11], 1.111 µM	1.034
[11], 3.333 µM	0.983
[11], 10 µM	0.901
[12], 0.00017 µM	1.05
[12], 0.00051 µM	1.03
[12], 0.00152 µM	1.02
[12], 0.00457 µM	1.05
[12], 0.01372 µM	1.03
[12], 0.04115 µM	1.01
[12], 0.1235 µM	0.998
[12], 0.3704 µM	0.946
[12], 1.111 µM	0.765
[12], 3.333 µM	0.605
[12], 10 µM	0.511
